Experimental data reported in PubChem BioAssay AID180 (DTP/NCI, 2004).
“And” between values parts separate entries of the source, which are not always exact repeats. Equal values may be shown once.

System: BDF1 mice, Adenocarcinoma 755 s.c., tumor weight T/C
Assay: NCI In Vivo Anticancer Drug Screen. Data for tumor model Adenocarcinoma 755 (subcutaneous) in B6D2F1 (BDF1) mice
Settings: endpoint: mean tumor weight, schedule: Q01DX011 (ip), higher = larger tumour
Summary of the method: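 Compound activity was tested in mice carrying transplanted tumors. Survival or tumor size was measured, and each value is the treated-group measurement divided by that of the vehicle-treated control group (T/C).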

[1] = dose: 25.0 mg/kg/injection, vehicle: methylcellulose (MC)
[2] = dose: 75.0 mg/kg/injection, vehicle: methylcellulose (MC)

For `O=C1CN(/N=C\c2ccc([N+](=O)[O-])o2)C(=O)N1`, the T/C (dose: 4.74 mg/kg/injection, vehicle: carboxymethylcellulose (CMC)) was 111 % of control, the T/C (dose: 8.03 mg/kg/injection, vehicle: carboxymethylcellulose (CMC)) was 96 % of control and the T/C (dose: 9.48 mg/kg/injection, vehicle: carboxymethylcellulose (CMC)) was 121 % of control. For the same molecule, the T/C (dose: 12.5 mg/kg/injection, vehicle: methylcellulose (MC)) was 83 % of control, the T/C (dose: 16.05 mg/kg/injection, vehicle: carboxymethylcellulose (CMC)) was 115 % of control and the T/C (dose: 18.95 mg/kg/injection, vehicle: carboxymethylcellulose (CMC)) was 94 % of control. The T/C [1] was 61 % of control, the T/C (dose: 25.68 mg/kg/injection, vehicle: carboxymethylcellulose (CMC)) was 68 % of control and the T/C (dose: 35.0 mg/kg/injection, vehicle: carboxymethylcellulose (CMC)) was 84 % of control. For the same molecule, the T/C (dose: 37.9 mg/kg/injection, vehicle: carboxymethylcellulose (CMC)) was 80 % of control, the T/C (dose: 42.8 mg/kg/injection, vehicle: carboxymethylcellulose (CMC)) was 41 % of control and the T/C (dose: 45.0 mg/kg/injection, vehicle: carboxymethylcellulose (CMC)) was 64 % of control. The T/C (dose: 50.0 mg/kg/injection, vehicle: methylcellulose (MC)) was 75 % of control, the T/C (dose: 56.0 mg/kg/injection, vehicle: carboxymethylcellulose (CMC)) was 98 % of control and the T/C (dose: 64.0 mg/kg/injection, vehicle: carboxymethylcellulose (CMC)) was 72 % of control. The T/C [2] was 55 % of control and the T/C (dose: 100.0 mg/kg/injection, vehicle: methylcellulose (MC)) was 89 % of control.
For `Cn1c(=O)c2c(nc(C#N)n2C)n(C)c1=O`, the T/C [1] was 104 % of control, the T/C [2] was 102 % of control and the T/C (dose: 225.0 mg/kg/injection, vehicle: methylcellulose (MC)) was 58 % of control.
For `COC(=O)C1C(O)CCC2CN3CCc4c([nH]c5ccccc45)C3CC21` (stereo not drawn), the T/C (dose: 150.0 mg/kg/injection, vehicle: carboxymethylcellulose (CMC)) was 75 % of control.
In the case of `CN[C@H]1CCc2cc(OC)c(OC)c(OC)c2-c2ccc(OC)c(=O)cc21`, the T/C (dose: 0.75 mg/kg/injection, vehicle: methylcellulose (MC)) was 44 % of control, the T/C (dose: 1.5 mg/kg/injection, vehicle: methylcellulose (MC)) was 60 % of control and the T/C (dose: 3.0 mg/kg/injection, vehicle: methylcellulose (MC)) was 56 % of control. The T/C (dose: 6.0 mg/kg/injection, vehicle: methylcellulose (MC)) was 7 % of control.
In the case of `NC(=O)NOC(=O)c1ccccc1`, the T/C (dose: 50.0 mg/kg/injection, vehicle: other) was 57 % of control, the T/C (dose: 50.0 mg/kg/injection, vehicle: saline) was 86 % of control and the T/C (dose: 100.0 mg/kg/injection, vehicle: other) was 28 % of control. For the same molecule, the T/C (dose: 100.0 mg/kg/injection, vehicle: saline) was 75 % of control, the T/C (dose: 200.0 mg/kg/injection, vehicle: other) was 21 % of control and the T/C (dose: 200.0 mg/kg/injection, vehicle: saline) was 94 % of control. The T/C (dose: 400.0 mg/kg/injection, vehicle: saline) was 92 % of control.
In the case of `Cn1cnc2c(F)ncnc21`, the T/C (dose: 8.5 mg/kg/injection, vehicle: carboxymethylcellulose (CMC)) was 106 % of control, the T/C (dose: 17.0 mg/kg/injection, vehicle: carboxymethylcellulose (CMC)) was 96 % of control and the T/C (dose: 34.0 mg/kg/injection, vehicle: carboxymethylcellulose (CMC)) was 85 % of control. For the same molecule, the T/C (dose: 68.0 mg/kg/injection, vehicle: carboxymethylcellulose (CMC)) was 84 % of control.
With `OCCOCCN1CCN(CCCN2c3ccccc3Sc3ccc(C(F)(F)F)cc32)CC1` the T/C (dose: 5.0 mg/kg/injection, vehicle: saline) was 54 % of control and 75 % of control and the T/C (dose: 20.0 mg/kg/injection, vehicle: saline) was 12 % of control and 29 % of control.
